Results: patent EP0695746A2, “Antiviral compounds and pharmaceutical compositions” (PHARMA MAR, S.A., priority 1994, dated 1996)
≈ marks a conversion by molar mass, not a printed value.

What was measured:
[1] = tested on: HIV-1 p24 core antigen; test: p24 ELISA on supernatant of the cytotoxic assay wells; format: cell-based
Method: Secondary assays for evaluating antiviral activity included the syncytial-forming assay and p24 ELISA's. The first assay was described above. The p24 assay was performed by purchasing the p24 kit for the human immunodeficiency virus for p24 antigen assays from the Coulter Corporation, Hialeah, FL. […] The preparation of a mouse monoclonal antibody with high specificity and affinity for the viral p24 protein has allowed the development of an extremely sensitive ELISA for HIV-1 p24 core antigen.
An assay for antiviral activity to HIV-1 was started on 10-28-93 using the cytotoxic assay as described above and HIV-1 activity was observed microscopically in this sample on day 4 of the cytotoxic assay. On day six, 10 µl of supernatant fluid were removed from the cytotoxic wells and assayed for p24. The results of the cytotoxic assay, p24 assay, and syncytia assay were: […]

[2] = tested on: CD-1 mice; test: In vivo toxicity test, single injection
Method: The LD₅₀ for the compound was > 150 mg/kg.

[3] = tested on: HIV-1 RF; test: XTT cytoprotection assay (called Cytotoxic Assay in the tables), antiviral activity; format: cell-based
Method: Changes were made to accommodate changes in solvent systems and drug test dilutions.
For the cytoprotection assay CEM-SS cells and HIV-1 RF strain of virus were used. Test samples were first diluted in an appropriate solvent, and 10 to 50 µl were transferred to the test plate. If the solvent was methanol or a similar solvent, the plates were allowed to evaporate. If medium was used for dilutions the plates were covered and the volume of test sample was taken into consideration when adding cells and virus. At each test concentration 50 µl of sample were added to three wells, one for toxicity tests, one for color control, and one for antiviral activity. Assuming the solvent was evaporated, 150 µl cells are added to all wells, except the control wells for medium only, so that the cell concentration per well was 5000. Then 50 µl of HIV-1 virus was added to each test well so that the M.O.I. was approximately 0.31. For toxicity tests 50 µl of medium were added to the control well. The plates were incubated in 5% CO₂ for 6 days at 37°C. After incubation, the XTT solution was added to the plates, and after 4 hours incubation at 37°C the plates are covered with clear plastic sealers. Cell viability was measured by the visible light absorbance at 450 nm and a reference wavelength of 650 nm. Data were expressed as a percentage of formazan produced in drug test wells compared to formazan produced in wells of untreated control cells.
Cells were maintained in the logarithmic growth state by subdividing cultures when the cell concentrations reach an upper limit of 1 x 10⁶ cells per ml.
For antiviral assays CEM-SS cells at a cell concentration of 5.0 x 10⁵ in serum free medium were treated with polybrene at a concentration of 1 µg/ml and incubated for 30 to 60 minutes at 37°C. Polybrene medium was removed by centrifugation, and CEM-SS cells were resuspended in growth medium. If solvents were evaporated the cell concentration was 33,500 cells per ml so that 150 µl contained 5000 cells. If medium was the dilution vehicle then the cell concentration was 50,000 so that 100 µl contained 5000 cells. The total test volume for medium, cells, and virus was 200 µl.
Store frozen at -20°C (0.1 to 0.2 ml per vial). Warm to 37°C as needed. […] PMS dilution for XTT medium: Dilute PMS stock from freezer 1:100 in PBS. Add 4% to medium. […] Formula for XTT/PMS solution for 1 plate (5 ml per plate)
Dissolve XTT in medium, add PMS/PBS. Warm to 37°C for approximately 10 to 15 minutes to obtain an homogeneous solution. Add 50 µl per plate Incubate for 4 hours. Read A(450-650) nm. […] The data was processed to convert optical density readings to a percentage of inhibition compared to CEM-SS cells that have not been infected with HIV-1 virus. C = cells D = Drug or Sample M = Medium V = Virus
% toxicity = 100 - [(((M + D + C) - M) ÷ ((M + C) - M)) * 100] [formula] % antiviral = ((M + D + C + V)-V-M)) ÷ ((M + D + C)-(V-M))) * 100 [formula]

[4] = tested on: CEM-SS cells; test: XTT cytoprotection assay (Cytotoxic Assay), toxicity wells without virus; format: cell-based, human; conditions: Table VI, assay date
Method: This assay is a measure of the viability of human T cell lines after infection with HIV in the presence of potential antiviral compounds. The results are assessed spectrophometrically by reading optical densities after the addition of XTT to determine if the viable cells reduced the pale yellow tetrazolium reagent (XTT) to an orange formazan product. This assay can be utilized for the initial screen of large numbers of samples. For the cytoprotection assay CEM-SS cells and HIV-1 RF strain of virus were used. Test samples were first diluted in an appropriate solvent, and 10 to 50 μl were transferred to the test plate. If the solvent was methanol or a similar solvent, the plates were allowed to evaporate. If medium was used for dilutions the plates were covered and the volume of test sample was taken into consideration when adding cells and virus. At each test concentration 50 μl of sample were added to three wells, one for toxicity tests, one for color control, and one for antiviral activity. Assuming the solvent was evaporated, 150 μl cells are added to all wells, except the control wells for medium only, so that the cell concentration per well was 5000. Then 50 μl of HIV-1 virus was added to each test well so that the M.O.I. was approximately 0.31. For toxicity tests 50 μl of medium were added to the control well. The plates were incubated in 5% CO2 for 6 days at 37°C. After incubation, the XTT solution was added to the plates, and after 4 hours incubation at 37°C the plates are covered with clear plastic sealers. Cell viability was measured by the visible light absorbance at 450 nm and a reference wavelength of 650 nm. Data were expressed as a percentage of formazan produced in drug test wells compared to formazan produced in wells of untreated control cells. CEM-SS cells were maintained with growth medium RPMI 1640, 10% fetal bovine serum, 2% L-glutamine (200 mM), and 50 μg/ml gentamicin in a 5% CO2 water-saturated atmosphere. Cells were maintained in the logarithmic growth state by subdividing cultures when the cell concentrations reach an upper limit of 1 x 10^6 cells per ml. […] Polybrene medium was removed by centrifugation, and CEM-SS cells were resuspended in growth medium. If solvents were evaporated the cell concentration was 33,500 cells per ml so that 150 μl contained 5000 cells. If medium was the dilution vehicle then the cell concentration was 50,000 so that 100 μl contained 5000 cells. The total test volume for medium, cells, and virus was 200 μl. Dissolve XTT in medium, add PMS/PBS. Warm to 37°C for approximately 10 to 15 minutes to obtain an homogeneous solution. Add 50 μl per plate Incubate for 4 hours. Read A(450-650) nm. B.2.5. Data processing After the plates were read spectrophotometrically the data was transferred via modem from the laboratory to the office. The data was processed to convert optical density readings to a percentage of inhibition compared to CEM-SS cells that have not been infected with HIV-1 virus. C = cells D = Drug or Sample M = Medium V = Virus M = medium only in well V = medium + CEM-SS cells + virus in well (M + C) = medium + CEM-SS cells (M + D) = medium + drug in well (M + D + C) = medium + drug + CEM-SS cell in well (M+D+C+V) = medium + drug + CEM-SS cells + virus in well.

[5] = tested on: HIV-1 RF; test: Syncytium-forming assay (Syncytia assay), antiviral activity; format: cell-based
Source text: To determine the HIV-1 viral titers the quantitative infectivity syncytium-forming assay described by P.L. Nara and P.J. Fischinger, "Quantitative Infectivity Assay for HIV-1 and -2," Nature, 332: 469 (1988)) was used. In this assay a single infectious unit of virus infects a single cell and initiates a focal cell change such as syncytium formation. Because a single infectious unit causes a single response, a linear relationship exists between the number of cytopathic effects caused by viral infection and the first order of virus concentration. This quantitative assay can be used to determine the titers of the HIV-1 in viral stocks, neutralization tests, and antiviral assays.
The quantitative infectivity syncytium-forming assay is applied for the direct quantitation of fusigenic virus-infected cells. CEM-SS cells were used for the syncytium-forming assay. CEM-SS cell are human T4-lymphoblastoid cells of a cell line initially derived by G.E. Foley, et al., "Continuous Culture to Human Lymphoblasts from Peripheral Blood of a Child with Acute Leukemia," Cancer, 18: 522 (1965) and biologically cloned by Nara et al., supra. The cells for this assay were provided by Dr. Nara.
CEM-SS cells were maintained in a growth medium of RPMI 1640, 10% fetal bovine serum, 1% L-glutamine (200 mM) and 50 µg/ml of gentamicin. CEM-SS cells grow in suspension. The cells have been cloned for both poly-L-lysine-induced adherence to microtiter plates and virus-induced syncytial and fusogenic sensitivity following infection with either cell-free or cell-associated HIV-1 and HIV-2. It has been determined that the cells are negative for virus including human retroviruses as determined by electron microscopy and reverse transcriptase analysis.
A.4.1. Use 96-wells flat bottom tissue culture plates and score the bottoms of all wells into 4 quadrants. A.4.2. Add 50 µl/well of diluted poly-L-lysine. Prepare stock poly-L-lysine (Poly-L-lysine hydrobromide, Sigma catalog, cat. # P-1399) at 5 mg/ml and store at -20°C for future use. For the assay dilute the stock poly-L-lysine 1:100 using phosphate buffered saline (PBS). A.4.3. Incubate plates at room temperature for no less than 30 minutes. A.4.4. Remove poly-L-lysine from wells. A.4.5. Wash the plates with 100 µl/well of Dulbecco's PBS and remove the excess PBS. A.4.6. Dilute CEM-SS cells in a logarithmic state of growth to 0.5 x 10⁶ cells per ml in a serum free medium and add 1 µg/ml polybrene. Incubate the cell suspension at 37°C for 60 minutes. Centrifuge at 800 rpm for 10 minutes and decant the supernatant fluid. A.4.7. Dilute the treated CEM-SS cell suspension to 5.0 x 10⁵ cells. Add 100 µl to the test wells so that the final cell concentration is 50,000 cells per well. Make ten-fold dilutions of the viral stock. Add 50 µl to the test wells. Add 50 µl growth medium to bring the total test volume to 200 µl. On day 3 place a clear plastic film (plate sealers, Dynatech Laboratories, Inc., cat # 001-010-3501) over the microtiter wells and evaluate for syncytium forming units (SFU).
The assay described above for determining viral titers of HIV-1 stock virus can be modified and used to evaluate the antiviral activity of compounds. A.5.1. Plates are treated with poly-L-lysine the same as above, and CEM-SS cells are polybrene treated. A.5.2. Dilute test compound in medium to desired concentrations. A.5.3. Add 100 µl CEM-SS cells to each well so that the final cell concentration is 50,000 cells per well. A.5.4. Add 50 µl of the test compound at each respective concentration to at least two wells, or four for one replicate assay. A.5.5. Add 50 µl growth medium to drug control wells. A.5.6. Add 50 µl HIV-1 virus to test wells at a concentration that provides approximately 100 SFU of virus per well. A.5.7. Run appropriate cell and viral controls. A.5.8. Incubate plates for 3 to 5 days. A.5.9. On day 3 to 5 cover plates with clear plastic sealers and count syncytial-forming units in the test wells and viral control wells.

[6] = tested on: CEM-SS cells; test: Syncytium-forming assay (Syncytia assay), toxicity in drug control wells; format: cell-based; conditions: Homo sapiens
Method: The assay described above for determining viral titers of HIV-1 stock virus can be modified and used to evaluate the antiviral activity of compounds. A.5.1. Plates are treated with poly-L-lysine the same as above, and CEM-SS cells are polybrene treated. A.5.2. Dilute test compound in medium to desired concentrations. A.5.3. Add 100 µl CEM-SS cells to each well so that the final cell concentration is 50,000 cells per well. A.5.4. Add 50 µl of the test compound at each respective concentration to at least two wells, or four for one replicate assay. A.5.5. Add 50 µl growth medium to drug control wells. A.5.6. Add 50 µl HIV-1 virus to test wells at a concentration that provides approximately 100 SFU of virus per well. A.5.7. Run appropriate cell and viral controls. A.5.8. Incubate plates for 3 to 5 days. A.5.9. On day 3 to 5 cover plates with clear plastic sealers and count syncytial-forming units in the test wells and viral control wells. To determine if the test compounds have antiviral activity, compare the total number of SFU in the viral control to those enumerated in the test wells.

[7] = tested on: HIV-1; test: HIV-1 antiviral in vitro assays; format: cell-based
[8] = Human immunodeficiency virus 1, Table VI, Cytotoxic Assay, assay date, read-out: EC50 (converted)
[9] = Homo sapiens, CEM-SS, read-out: IC50 (converted)
[10] = Human immunodeficiency virus 1, Table VI, Syncytia Assay, 06-29-94, read-out: EC50 (converted)
[11] = Table VI, Syncytia Assay, 06-29-94
[12] = Table III, Syncytia Assay (M.O.I. = .005)

Structure (SMILES): CC1(C)CCC[C@@]2(C)[C@H](c3ccoc3)C(=O)[C@H]3O[C@@]312 (racemic) [PM-92131 (±)]
- EC50 ([1]; Human immunodeficiency virus 1, Table I, P24 ELISA): 0.5 µg/mL (≈ 1.92 µM)
- EC50 ([1]; Human immunodeficiency virus 1, Table III, p24 ELISA Assay): 0.35 µg/mL (≈ 1.34 µM)
- LD₅₀ [2]: > 150 mg/kg

Structure (SMILES): CC1(C)CCC[C@@]2(C)[C@H](c3ccccc3)C(=O)[C@H]3O[C@@]312 (racemic) [PM-94118(±)]
- EC50 [3, 8]: 3 µg/mL
- IC50 [4, 9]: 9 µg/mL (≈ 33.3 µM)
- IC50 [4]: 1.87 μg/200 μl
- EC50 [5, 10]: 2 µg/mL
- SI [5, 11]: 10
- IC50 [6, 11]: 20 µg/mL (≈ 74 µM)

Structure (SMILES): CC1(C)CCC[C@@]2(C)[C@@H](c3ccsc3)C(=O)[C@@H]3O[C@]312 [PM-94117]
- IC50 [4, 9]: 12.5 µg/mL (≈ 45.2 µM)
- EC50 [5, 10]: 1.2 µg/mL
- SI [5, 11]: 13
- IC50 [6, 11]: 15 µg/mL (≈ 54.3 µM)

Structure (SMILES): CC1(C)CCC[C@]2(C)[C@H](c3ccsc3)C(=O)[C@H]3O[C@@]312 (racemic) [PM-94116 & PM-94117 (1:1)]
- EC50 [3, 8]: 2.15 µg/mL
- SI ([3]; Table VI, Cytotoxic Assay): 2
- IC50 [4, 9]: 4.35 µg/mL (≈ 15.7 µM)
- EC50 [5, 10]: 1 µg/mL
- SI [5, 11]: 11
- IC50 [6, 11]: 11 µg/mL (≈ 39.8 µM)
- HIV-1 antiviral activity (in words) [7]: exhibit anti-HIV-1 activity

Structure (SMILES): CC1(C)CCC[C@@]2(C)[C@H](c3ccsc3)C(=O)[C@H]3O[C@@]312 (racemic) [SU-0096(±)]
- IC50 [4, 9]: 4.5 µg/mL (≈ 16.3 µM)

Structure (SMILES): CC1(C)CCC[C@]2(C)[C@@H](c3ccoc3)C(=O)[C@@H]3O[C@]312 [PM-92131 (-)]
- EC50 ([5]; Human immunodeficiency virus 1, Table III, Syncytia Assay (M.O.I. = .005), read-out: EC50 (converted)): 4 µg/mL
- SI [5, 12]: 10
- IC50 [6, 12]: 40 µg/mL (≈ 154 µM)
- HIV-1 antiviral activity (in words) [7]: active against HIV-1

Structure (SMILES): Cc1cn([C@H]2C[C@H](N=[N+]=[N-])[C@@H](CO)O2)c(=O)[nH]c1=O [AZT, 3'-azido-3'-deoxythymidine, reference compound]
- EC50 ([3]; Human immunodeficiency virus 1, Table V, Cytoprotection Assay, MOI 0.037, read-out: EC₅₀): 100 nM
- EC50 ([3]; Human immunodeficiency virus 1, Table V, Cytoprotection Assay, MOI 0.074, read-out: EC₅₀): 460 nM
- EC50 ([3]; Human immunodeficiency virus 1, Table V, Cytoprotection Assay, MOI 0.149, read-out: EC₅₀): 1300 nM
- EC50 ([5]; Human immunodeficiency virus 1, Table IV, Syncytia Assay, MOI 0.002, read-out: EC₅₀): 10 nM
- EC50 ([5]; Human immunodeficiency virus 1, Table IV, Syncytia Assay, MOI 0.004, read-out: EC₅₀): 10 nM
- EC50 ([5]; Human immunodeficiency virus 1, Table IV, Syncytia Assay, MOI 0.008, read-out: EC₅₀): 10 nM
- EC50 ([5]; Human immunodeficiency virus 1, Table IV, Syncytia Assay, MOI 0.016, read-out: EC₅₀): 70 nM
